Values quoted from earlier work as cited in US12629325B2, “Increased solubilization of Bemotrizinol” (DSM IP ASSETS B.V., priority 2020, dated 2026).
Read-outs that look alike come from different tables or passages of the source.

Conditions: for Solubility in esters: particularly C12-15 alkyl benzoate
[1] = listed as UV-filter of the formula (I)

SMILES: CCCCC(CC)COc1ccc(-c2nc(-c3ccc(OC)cc3)nc(-c3ccc(OCC(CC)CCCC)cc3O)n2)c(O)c1 (stereo not drawn) [Bemotrizinol, 2,4-Bis-{[4-(2-ethyl-hexyloxy)-2-hydroxy]-phenyl}-6-(4-methoxyphenyl)-1,3,5-triazine]
- Solubility in alkanes: very low
- Solubility in alkanes [1]: insoluble
- Solubility in esters: moderate solubility
- Solubility in esters [1]: very soluble
- Solubility in water: very low
- Solubility in water [1]: insoluble
